These results are taken from patent US20260000697A1, “COMBINATION FORMULATION OF CEDAZURIDINE” (Otsuka Pharmaceutical Co., Ltd., priority 2022, published 2026).

The conditions of series [1]: for release at buffer stage from enteric capsule: 50 mM phosphate buffer pH 6.8; for release at buffer stage from enteric capsule / release in acid stage from enteric capsule: Capsule 1 and Capsule 2; for release in acid stage from enteric capsule: 0.1 N HCl, 2 hours.
In series [2] the test system is fetal hemoglobin levels (Hb F). The conditions noted are these: orally administered (8 mg/kg), repeatedly phlebotomized baboon (PCV less than 20%); cited from earlier work.
The conditions of series [3]: 80 mg oral dose, 3 subjects, one value per subject, post-dose; cited from earlier work.
A further series is described as follows: clinical. The method, then:
Blood samples were collected pre-dose, and 0.5, 1, 1.5, 2, 2.5, 3, 3.5, 4, 5, 7, 9 and 24 hours after dosing.

The mark [4] stands for this setting: human, blood, subcutaneous, 60 mg.

Where “and” joins values, the source holds several entries; their conditions need not be identical. Equal values may be shown once. Read-outs that look alike come from different tables or passages of the source.

The term Tmax denotes the time from dosing to the highest level. A word on the AUC(0-t): it is the area under the concentration-time curve up to a stated or last time point. A higher AUC(0-t) goes with high exposure. The Cmax is the highest concentration seen after dosing.

`Nc1ncn([C@@H]2O[C@H](CO)C(O)[C@@H]2O)c(=O)n1` (some centres unmarked) [azacitidine]: in series [1], the “release at buffer stage from enteric capsule” value is given as “rapidly released” and the “release in acid stage from enteric capsule” value is on record as “slowly released”. In addition, the “elevation in fetal hemoglobin levels (Hb F)” value in series [2] was “no elevation”. In series [3], the Tmax was 1.5 h and 2.0 h and 1.0 h.

Consider `O=C1N[C@H](O)CCN1[C@@H]1O[C@H](CO)[C@@H](O)C1(F)F` [cedazuridine], for which the “effect of co-administration on azacitidine PK” value in “clinical” (60 mg oral delayed release azacitidine with vs without 60 mg cedazuridine) is “increased Tmax, Cmax and AUC for azacitidine”. Moreover, in series [1], the “release at buffer stage from enteric capsule” value is recorded as “rapidly released” and the “release in acid stage from enteric capsule” value is recorded as “slowly released”. Besides, in series [1] (pH 6.8), the “stability in dissolution medium” value is recorded as “degradation is minimal”.

As for `Nc1ncn([C@@H]2O[C@H](CO)[C@@H](O)[C@H]2O)c(=O)n1` [Group 1 (azacitidine, SQ), azacitidine], in the series “clinical” (setting [4]), the AUC(0-t) stood at 761 ng·h/mL, the Cmax was determined as 384 ng/mL and the time of peak concentration (Tmax) is 0.6 h.
